Source: US20260200897A1, “4-((5-(3-(4-(PYRIDIN-2-YL)CYCLOPENTYL)-1H-PYRAZOL-3-YL)AMINO)-BENZENESULFONAMIDE DERIVATIVES AND SIMILAR COMPOUNDS AS CDK INHIBITORS FOR THE TREATMENT OF CANCER” (BeOne Medicines I GmbH, priority 2023, published 2026)

Tests used:
CDK1/Cyclin B1 = CDK1/Cyclin B1 (Homo sapiens, UniProt P06493); experiment: CDK1/Cyclin B1 TR-FRET biochemical assay, 0.015 mM ATP; conditions: 0.15 μM Rb (Ser780)-biotin substrate, 120 min reaction, Table 1
CDK2/Cyclin E1 = CDK2/Cyclin E1 (Homo sapiens, UniProt P24941); experiment: CDK2/Cyclin E1 TR-FRET biochemical assay, 0.060 mM ATP; conditions: 0.15 μM Rb (Ser780)-biotin substrate, 120 min reaction, Table 1

Chain of CDK1/Cyclin B1 (P06493 whole entry): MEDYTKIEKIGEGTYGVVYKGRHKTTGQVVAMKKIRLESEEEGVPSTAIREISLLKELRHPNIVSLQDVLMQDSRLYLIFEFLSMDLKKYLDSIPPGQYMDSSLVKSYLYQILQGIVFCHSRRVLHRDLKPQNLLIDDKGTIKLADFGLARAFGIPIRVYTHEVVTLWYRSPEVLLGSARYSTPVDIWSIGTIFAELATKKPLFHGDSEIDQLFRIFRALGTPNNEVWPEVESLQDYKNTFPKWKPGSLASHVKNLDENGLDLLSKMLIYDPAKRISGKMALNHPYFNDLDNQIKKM
Chain of CDK1/Cyclin B1 (P14635 whole entry partner): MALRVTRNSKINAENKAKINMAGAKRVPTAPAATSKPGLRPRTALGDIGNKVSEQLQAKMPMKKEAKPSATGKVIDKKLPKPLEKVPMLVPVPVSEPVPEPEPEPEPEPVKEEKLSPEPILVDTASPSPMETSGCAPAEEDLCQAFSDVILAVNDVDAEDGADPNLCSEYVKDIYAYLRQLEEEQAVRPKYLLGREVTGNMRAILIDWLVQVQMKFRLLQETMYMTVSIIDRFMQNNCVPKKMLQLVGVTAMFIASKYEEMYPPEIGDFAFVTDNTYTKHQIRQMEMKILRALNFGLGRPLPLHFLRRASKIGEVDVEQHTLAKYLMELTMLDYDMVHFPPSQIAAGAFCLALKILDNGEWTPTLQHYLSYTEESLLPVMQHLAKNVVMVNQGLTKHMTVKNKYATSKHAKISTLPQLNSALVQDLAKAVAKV

Compound	IC50 (CDK1/Cyclin B1) [µM]	IC50 (CDK2/Cyclin E1) [µM]
C=C(C)c1csnc1O[C@@H]1CC[C@H](c2cc(Nc3ccc4c(c3F)CNS4(=O)=O)n[nH]2)C1 (relative stereo) [Example 52, cis-4-fluoro-5-((5-(3-((4-(prop-1-en-2-yl)isothiazol-3-yl)oxy)cyclopentyl)-1H-pyrazol-3-yl)amino)-2,3-dihydrobenzo[d]isothiazole 1,1-dioxide]	0.121	0.0071
CC(C)(C)c1cnc(C2CCC(c3cc(Nc4ccc5c(c4F)CNS5(=O)=O)n[nH]3)C2)o1 (single isomer, unassigned) [Example 91b, cis-5-((5-(3-(5-(tert-butyl)oxazol-2-yl)cyclopentyl)-1H-pyrazol-3-yl)amino)-4-fluoro-2,3-dihydrobenzo[d]isothiazole 1,1-dioxide]	2.57	0.023
CC(C)(C)c1cc(O[C@@H]2CC[C@H](c3cc(Nc4ccc5c(c4F)CNS5(=O)=O)n[nH]3)C2)[nH]n1 (relative stereo) [Example 71, cis-5-((5-(3-((3-(tert-butyl)-1H-pyrazol-5-yl)oxy)cyclopentyl)-1H-pyrazol-3-yl)amino)-4-fluoro-2,3-dihydrobenzo[d]isothiazole 1,1-dioxide]	7.81	0.391
CC(C)(C)c1n[nH]cc1OC1CCC(c2cc(Nc3ccc4c(c3F)CNS4(=O)=O)n[nH]2)C1 (single isomer, unassigned) [Example 74a, cis-5-((5-(3-((3-(tert-butyl)-1H-pyrazol-4-yl)oxy)cyclopentyl)-1H-pyrazol-3-yl)amino)-4-fluoro-2,3-dihydrobenzo[d]isothiazole 1,1-dioxide]	0.301	0.0049
CC(C)c1cnn([C@H]2CC[C@@H](c3cc(Nc4ccc5c(c4F)CNS5(=O)=O)n[nH]3)C2)c(=O)c1 (relative stereo) [Example 33, cis-2-(3-(3-((4-fluoro-1,1-dioxido-2,3-dihydrobenzo[d]isothiazol-5-yl)amino)-1H-pyrazol-5-yl)cyclopentyl)-5-isopropylpyridazin-3 (2H)-one]	0.703	0.0075
CC1(C)CC(=O)N([C@H]2CC[C@@H](c3cc(Nc4ccc5c(c4F)CNS5(=O)=O)n[nH]3)C2)C1=O (relative stereo) [Example 87, cis-1-(3-(3-((4-fluoro-1,1-dioxido-2,3-dihydrobenzo[d]isothiazol-5-yl)amino)-1H-pyrazol-5-yl)cyclopentyl)-3,3-dimethylpyrrolidine-2,5-dione]	3.25	0.229
